We go through 17 molecules from PubChem BioAssay (NCI).

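Test compounds were applied to cells in 96-well plates for 48 hours at 5 doses. TGI denotes the concentration required for complete inhibition of growth.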 Where only a bound is given, the exact number is not on record here.

Among the test systems are 786-0 renal; A549 NSCLC; CAKI-1 renal; EKVX NSCLC; HS 578T breast; IGROV1 ovarian; K-562 leukemia; LOX IMVI melanoma; MOLT-4 leukemia; NCI-H23 lung; OVCAR-4 ovarian; SN12C renal; SW-620 colon; CCRF-CEM leukemia.
What all share (test): NCI tumour cell line growth inhibition, 48 h

Consider `CC(C)CCNC(=O)c1ccc(CNC(=O)/C=C/c2cccc(Oc3ccccc3)c2)cc1`, for which the TGI in the test on 786-0 renal was 69.3 µM; with A549 NSCLC, above 100 µM; in the test with CAKI-1 renal it was above 100 µM; with EKVX NSCLC it was above 100 µM; with HS 578T breast, above 100 µM; in the test on IGROV1 ovarian it was above 100 µM. For the same molecule, the TGI in the test with K-562 leukemia, in the test with LOX IMVI melanoma, in the test on MOLT-4 leukemia, in the test with NCI-H23 lung, with OVCAR-4 ovarian and in the test on SN12C renal was above 100 µM throughout. Moreover, the TGI in the test with SW-620 colon was above 100 µM.
On to `O=C(NN1C(=O)C(Cl)C1c1ccc(Cl)cc1)c1c(Cl)c(Cl)c(Cl)c(Cl)c1-c1nc2ccccc2[nH]1` (configuration not stated), for which the TGI in the test on 786-0 renal is 47.4 µM; in the test with A549 NSCLC it was above 100 µM; in the test with CAKI-1 renal it was 23.2 µM; in the test on CCRF-CEM leukemia, above 100 µM; in the test on EKVX NSCLC, 88.7 µM; with HS 578T breast, above 100 µM. The TGI is 45.8 µM in the test on IGROV1 ovarian; above 100 µM in the test on K-562 leukemia; 32.5 µM with LOX IMVI melanoma; above 100 µM with MOLT-4 leukemia; 69 µM with NCI-H23 lung; 83.2 µM with SN12C renal. Besides, the TGI with SW-620 colon was above 100 µM.
Regarding `COc1cc2c(cc1OCCCCCCCCCCN1C(=O)c3cccc4cccc(c34)C1=O)N=C[C@@H]1CCCN1C2=O`, the TGI worked out at 55.9 µM with 786-0 renal; 82.4 µM in the test with A549 NSCLC; 28.9 µM in the test on CAKI-1 renal; 14.4 µM in the test on EKVX NSCLC; 75.3 µM in the test on HS 578T breast; 18.4 µM with IGROV1 ovarian. The TGI with K-562 leukemia was determined as 74.7 µM; in the test with LOX IMVI melanoma it was 4.99 µM; with MOLT-4 leukemia, 5.76 µM; with NCI-H23 lung it was 22.4 µM; in the test with OVCAR-4 ovarian it was 6.11 µM; in the test on SN12C renal, 18.3 µM. Further, the TGI in the test on SW-620 colon is 19 µM.
With `N#CSCC(Cl)=CCl` (mixture of isomers), the TGI with 786-0 renal, in the test on A549 NSCLC, with CCRF-CEM leukemia, in the test with EKVX NSCLC, in the test on HS 578T breast and in the test on IGROV1 ovarian was above 100 µM in each case. Also, the TGI in the test with K-562 leukemia was above 100 µM; in the test with LOX IMVI melanoma it was 71.7 µM; with MOLT-4 leukemia, 97.5 µM; in the test with NCI-H23 lung, above 100 µM; in the test on OVCAR-4 ovarian it was above 100 µM; with SN12C renal, above 100 µM. The TGI in the test with SW-620 colon is above 100 µM.
Regarding `CC(C)NC(=O)OCc1c2c(n(C)c1COC(=O)NC(C)C)-c1cc(Cl)c(Cl)cc1CC2`, the TGI was above 100 µM in the test on 786-0 renal; above 100 µM with A549 NSCLC; 65.6 µM in the test on CCRF-CEM leukemia; above 100 µM with EKVX NSCLC; above 100 µM in the test on HS 578T breast; 96 µM in the test on IGROV1 ovarian. Further, the TGI with K-562 leukemia was 41.6 µM; in the test with LOX IMVI melanoma it was above 100 µM; with MOLT-4 leukemia, 60.3 µM; in the test on NCI-H23 lung it was 87.9 µM; in the test with OVCAR-4 ovarian, above 100 µM; with SN12C renal, above 100 µM. The same molecule registered a TGI in the test with SW-620 colon above 100 µM.
Consider `CC(C)(C)C1=C(Br)C(C(C)(C)C)OP1(=O)O` (configuration not stated), for which the TGI in the test on 786-0 renal, in the test on A549 NSCLC, with CAKI-1 renal, in the test with EKVX NSCLC, in the test with HS 578T breast and in the test on IGROV1 ovarian was above 100 µM throughout. In addition, the TGI in the test with K-562 leukemia, with LOX IMVI melanoma, with NCI-H23 lung, in the test with OVCAR-4 ovarian and with SN12C renal was above 100 µM each time.
Regarding `CC(C)(C)C1CCC(=O)/C(=C/CC2CC(=O)N(c3ccccc3)C(=O)C2)C1` (configuration not stated), the TGI in the test on 786-0 renal is 38.3 µM; in the test on CAKI-1 renal it was 41.6 µM; in the test with EKVX NSCLC it was 60.2 µM; in the test with HS 578T breast it was 94.5 µM; with IGROV1 ovarian it was 44.5 µM; in the test with K-562 leukemia it was 48.3 µM. The TGI in the test on LOX IMVI melanoma was 29.7 µM; in the test with MOLT-4 leukemia it was 75.2 µM; in the test on NCI-H23 lung it was 34.6 µM; in the test with OVCAR-4 ovarian, 77.4 µM; with SN12C renal, 41.3 µM; in the test with SW-620 colon, 53.5 µM.
As for `Cc1ccc(C2(O)CSC(=NC34CC5CC(CC(C5)C3)C4)N2C(P(=O)(O)O)P(=O)(O)O)cc1` (configuration not stated), the TGI with 786-0 renal, with A549 NSCLC, with CAKI-1 renal, with EKVX NSCLC, with HS 578T breast and in the test on IGROV1 ovarian was above 100 µM in each case. Further, the TGI in the test on K-562 leukemia, with MOLT-4 leukemia, in the test on NCI-H23 lung, in the test with OVCAR-4 ovarian, in the test on SN12C renal and in the test on SW-620 colon was above 100 µM in each case.
Turning to `N#Cc1ccc(-c2nc3c(N)ncnc3o2)cc1`, the TGI with 786-0 renal, in the test on A549 NSCLC, in the test on CAKI-1 renal, with CCRF-CEM leukemia, with EKVX NSCLC and in the test on HS 578T breast was above 100 µM each time. The TGI with IGROV1 ovarian, in the test on K-562 leukemia, in the test with LOX IMVI melanoma, with MOLT-4 leukemia, in the test on NCI-H23 lung and in the test with SN12C renal was above 100 µM in each case. Besides, the TGI with SW-620 colon is above 100 µM.
Consider `O=C(NC1=C(Cl)C(=O)c2ccccc2C1=O)c1ccccc1`, for which the TGI in the test with 786-0 renal, in the test with A549 NSCLC, in the test on CCRF-CEM leukemia, with EKVX NSCLC, in the test on HS 578T breast and in the test on IGROV1 ovarian was above 100 µM each time. Further, the TGI was 54.3 µM with K-562 leukemia; 58.8 µM in the test with MOLT-4 leukemia; 71.7 µM with NCI-H23 lung; above 100 µM with OVCAR-4 ovarian; above 100 µM in the test on SN12C renal; 33.4 µM in the test with SW-620 colon.
With `Clc1ccc(CCN(CCc2ccc(Cl)c(Cl)c2)CCN2CCCC2)cc1Cl`, the TGI with 786-0 renal was 3.14 µM; in the test with A549 NSCLC, 3.15 µM; in the test on CAKI-1 renal, 3.02 µM; with CCRF-CEM leukemia, 2.73 µM; in the test with EKVX NSCLC, 4.4 µM; in the test with HS 578T breast, 4.47 µM. Moreover, the TGI with IGROV1 ovarian came to 2.93 µM; in the test with LOX IMVI melanoma, 2.95 µM; with NCI-H23 lung, 3.42 µM; with OVCAR-4 ovarian it was 3.66 µM.
As for `CC1C2CC(C(S(=O)(=O)O)C2=O)C1(C)C` (configuration not stated), the TGI in the test on 786-0 renal, with CCRF-CEM leukemia, with EKVX NSCLC, in the test with HS 578T breast, in the test with IGROV1 ovarian and in the test with K-562 leukemia was above 100 µM each time. For the same molecule, the TGI in the test with MOLT-4 leukemia, in the test on NCI-H23 lung, in the test on OVCAR-4 ovarian, in the test on SN12C renal and in the test with SW-620 colon was above 100 µM throughout.
Turning to `O=S(=O)(O)c1ccc(N=Nc2ccc3c(S(=O)(=O)O)cccc3c2O)c2ccccc12`, the TGI in the test on 786-0 renal, in the test on A549 NSCLC, in the test with CAKI-1 renal, with EKVX NSCLC, with HS 578T breast and with IGROV1 ovarian was above 100 µM throughout. The TGI in the test with LOX IMVI melanoma, with NCI-H23 lung, with OVCAR-4 ovarian, in the test with SN12C renal and with SW-620 colon was above 100 µM each time.
`COc1ccc(CC2COc3cc(OC)cc(OC)c3C2=O)cc1` (configuration not stated): the TGI in the test with 786-0 renal was 51.7 µM; in the test with A549 NSCLC, above 100 µM; with CAKI-1 renal, 57.1 µM; with EKVX NSCLC, 77.8 µM; in the test on HS 578T breast it was 87.3 µM; in the test on IGROV1 ovarian, above 100 µM. Also, the TGI was above 100 µM in the test with K-562 leukemia; above 100 µM in the test with LOX IMVI melanoma; above 100 µM in the test with MOLT-4 leukemia; above 100 µM with NCI-H23 lung; 51.5 µM in the test on OVCAR-4 ovarian; above 100 µM in the test on SN12C renal. Also, in the test with SW-620 colon, the TGI was above 100 µM.
`CCOC(=O)c1ccc(N=C/C=C(\Nc2ccc(C(=O)OCC)cc2)C23CC4CC(CC(C4)C2)C3)cc1`: the TGI in the test on 786-0 renal, with A549 NSCLC, with CAKI-1 renal, in the test on EKVX NSCLC, in the test on HS 578T breast and with IGROV1 ovarian was above 100 µM in each case. For the same molecule, the TGI with K-562 leukemia, in the test on LOX IMVI melanoma, in the test on MOLT-4 leukemia, in the test on NCI-H23 lung, in the test on OVCAR-4 ovarian and with SN12C renal was above 100 µM in each case. The molecule further registered a TGI in the test on SW-620 colon above 100 µM.
Turning to `S=C(N/N=C/c1ccccn1)N1CCCCC1`, the TGI is 7.08 µM with 786-0 renal; above 100 µM with A549 NSCLC; above 100 µM in the test with CAKI-1 renal; 17.4 µM in the test on EKVX NSCLC; 45.1 µM in the test on HS 578T breast; 45.6 µM in the test on K-562 leukemia. Besides, the TGI in the test with LOX IMVI melanoma is 20.8 µM; in the test with NCI-H23 lung, above 45.7 µM; with OVCAR-4 ovarian, above 24.1 µM; with SN12C renal, 1.96 µM; in the test with SW-620 colon, above 100 µM.
Take `COc1ccc2c(c1)CN1C(=N2)CSC1c1cccc(Br)c1` (configuration not stated): the TGI was 42.8 µM with 786-0 renal; above 100 µM in the test on A549 NSCLC; above 100 µM in the test on CAKI-1 renal; above 100 µM in the test with EKVX NSCLC; above 100 µM in the test on HS 578T breast; above 100 µM with IGROV1 ovarian. Further, the TGI with K-562 leukemia is above 100 µM; in the test with LOX IMVI melanoma it was above 100 µM; with MOLT-4 leukemia it was 63.2 µM; in the test on NCI-H23 lung, 83.5 µM; with OVCAR-4 ovarian it was above 100 µM; with SN12C renal, 62.6 µM. Moreover, the TGI with SW-620 colon is above 100 µM.
